Test results published in US9040525B2, “Cyclic amide derivative” (MOCHIDA PHARMACEUTICAL CO., LTD., priority 2010, dated 2015).
pEC50: −log10 of the molar value. Where a name gives a salt, the structure may show the parent alone.

What follows are compounds tested against T1, GPR40 of human origin (Homo sapiens, UniProt O14842) (assay: Agonist action on GPR40 of human origin (Ca2+ fluorescence, CHO cell strain stably expressing GPR40)). Conditions: fluctuation of Ca2+ concentration.
T1 construct: expressed in transfected cells
Type: cell-based
Experimental: A CHO cell strain stably expressing GPR40 of human origin was used to determine the agonist action of a title compound. This cell strain was seeded in a clear bottom 96 well plate at 2×10^4 cells/100 μL/well. The cell strain was cultured in a CO2 incubator overnight using a Ham's F-12 medium containing a 10% fetal bovine serum, 100 U/mL penicillin, 0.1 mg/mL streptomycin, and 400 μg/mL. Geneticin. Calcium 4 Assay Kit (Molecular Devices) was used as a fluorescent calcium indicator. One mL of 77 mg/mL probenecid (Invitrogen) was added to 100 mL of a calcium indicator solution to prepare a solution (loading solution) mixed with a 20 mM HEPES-containing Hanks' balanced salt solution (HBSS) in equal proportions. To the cells from which the culture solution was removed, 200 μL of the loading solution was added, and the cells were cultured in a CO2 incubator for 1 hour. The title compound was diluted with a 20 mM HEPES-containing HBSS and was added to the cells by 50 μL, and the fluctuation of the Ca^2+concentration was measured by an intracellular ion analyzer. The EC50 value of the title compound was calculated using the dose-response curve of fluorescence intensity variation.

T1 sequence (O14842 whole entry): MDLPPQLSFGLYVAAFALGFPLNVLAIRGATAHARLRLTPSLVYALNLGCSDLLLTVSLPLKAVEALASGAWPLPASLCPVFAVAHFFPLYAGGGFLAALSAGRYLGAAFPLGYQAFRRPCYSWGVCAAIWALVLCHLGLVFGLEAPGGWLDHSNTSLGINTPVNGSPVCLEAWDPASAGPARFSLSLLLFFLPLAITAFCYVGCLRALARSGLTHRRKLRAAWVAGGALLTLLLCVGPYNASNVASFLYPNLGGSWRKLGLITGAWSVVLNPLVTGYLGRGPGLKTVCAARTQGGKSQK

| SMILES | pEC50 |
| --- | --- |
| O=C1CC(c2ccc(O[C@@H]3CCc4c(Br)cccc43)cc2)CS(=O)(=O)N1 (stereo partly drawn) [Example 33, 5-(4-(((R)-4-bromo-2,3-dihydro-1H-inden-1-yl)oxy)phenyl)-1,1-dioxo-1,2-thiazinan-3-one] | > 6.52 |
| Cc1cc(OCCC(C)(C)O)cc(C)c1-c1cccc(COc2ccc(C3CC(=O)N[S+]3[O-])cc2)c1 (centres unmarked) [Example 4, 5-[4-[[3-[4-(3-hydroxy-3-methylbutoxy)-2,6-dimethylphenyl]phenyl]methoxy]phenyl]-1-oxo-1,2-thiazolidin-3-one] | > 6.52 |
| O=C1CC(c2ccc(O[C@@H]3CCc4c(Oc5ccccc5)cccc43)cc2)[S+]([O-])N1 (stereo partly drawn) [Example 27, 5-(4-(((R)-4-phenoxy-2,3-dihydro-1H-inden-1-yl)oxy)phenyl)-1-oxo-1,2-thiazolidin-3-one] | > 6.52 |
| Cc1cc(OCCCN)cc(C)c1-c1cccc(COc2ccc(C3CC(=O)N[S+]3[O-])cc2)c1 (centres unmarked) [Example 11, 5-[4-[[3-[4-(3-aminopropoxy)-2,6-dimethylphenyl]phenyl]methoxy]phenyl]-1-oxo-1,2-thiazolidin-3-one trifluoroacetic acid salt] | > 6.52 |
| Cc1cc(OCCCS(C)(=O)=O)cc(C)c1-c1cccc(COc2ccc(C3CC(=O)NS3(=O)=O)cc2)c1 (racemic) [Example 19, 5-[4-[[3-[2,6-dimethyl 4-(3-methylsulfonylpropoxy)phenyl]phenyl]methoxy]phenyl]-1,1-dioxo-1,2-thiazolidin-3-one] | > 6.52 |
| Cc1cc(OCCCS(C)(=O)=O)cc(C)c1-c1cccc(COc2ccc(C3CC(=O)N[S+]3[O-])cc2)c1 (centres unmarked) [Example 13, 5-[4-[[3-[2,6-dimethyl 4-(3-methylsulfonylpropoxy)phenyl]phenyl]methoxy]phenyl]-1-oxo-1,2-thiazolidin-3-one] | > 6.52 |
| Cc1cccc(C)c1-c1cccc(COc2ccc(N3CC(=O)NS3(=O)=O)cc2)c1 [Example 14, 5-[4-[[3-(2,6-dimethylphenyl)phenyl]methoxy]phenyl]-1,1-dioxo-1,2,5-thiadiazolidin-3-one] | > 6.52 |
| Cc1cc(OCCCS(C)(=O)=O)cc(C)c1-c1cccc(COc2ccc(N3CC(=O)NS3(=O)=O)cc2)c1 [Example 15, 5-[4-[[3-[2,6-dimethyl-4-(3-methylsulfonylpropoxy)phenyl]phenyl]methoxy]phenyl]-1,1-dioxo-1,2,5-thiadiazolidin-3-one] | 5.52 to 6.52 |
| Cc1cccc(C)c1-c1cccc(COc2ccc(N3CC(=O)NS3(=O)=O)c(Cl)c2)c1 [Example 16, 5-[2-chloro-4-[[3-(2,6-dimethylphenyl)phenyl]methoxy]phenyl]-1,1-dioxo-1,2,5-thiadiazolidin-3-one] | > 6.52 |
| Cc1cccc(C)c1-c1cccc(COc2ccc(N3C(C)C(=O)NS3(=O)=O)cc2)c1 (centres unmarked) [Example 18, 5-[4-[[3-(2,6-dimethylphenyl)phenyl]methoxy]phenyl]-4-methyl-1,1-dioxo-1,2,5-thiadiazolidin-3-one] | 5.52 to 6.52 |
| Cc1cc(OC[C@H](O)CO)cc(C)c1-c1cccc(COc2ccc(C3CC(=O)N[S+]3[O-])cc2)c1 (stereo partly drawn) [Example 9, 5-[4-[[3-[4-[(2R)-2,3-dihydroxypropoxy]-2,6-dimethylphenyl]phenyl]methoxy]phenyl]-1-oxo-1,2-thiazolidin-3-one] | > 6.52 |
| Cc1nc(OCCC(C)(C)O)ccc1-c1cccc2c1CC[C@H]2Oc1ccc(C2CC(=O)N[S+]2[O-])cc1 (single isomer, unassigned) [23(A)-b] | 5.52 to 6.52 |
| Cc1cc(OCC[C@@H](C)O)cc(C)c1-c1cccc(COc2ccc(C3CC(=O)N[S+]3[O-])cc2)c1 (mixture of isomers) [Example 12, 5-[4-[[3-[4-[(3R)-3-hydroxybutoxy]-2,6-dimethylphenyl]phenyl]methoxy]phenyl]-1-oxo-1,2-thiazolidin-3-one] | > 6.52 |
| Cc1cccc(C)c1-c1cccc(COc2ccc(C3CC(=O)NS(=O)(=O)C3)cc2)c1 (racemic) [Example 22, 5-[4-[[3-(2,6-dimethylphenyl)phenyl]methoxy]phenyl]-1,1-dioxo-1,2-thiazinan-3-one] | > 6.52 |
| Cc1cc(OCCC(C)(C)O)nc(C)c1-c1cccc(COc2ccc(C3CC(=O)NS(=O)(=O)C3)cc2)c1 (centres unmarked) [Example 35, 5-[4-[[3-[6-(3-hydroxy-3-methylbutoxy)-2,4-dimethylpyridin-3-yl]phenyl]methoxy]phenyl]-1,1-dioxo-1,2-thiazinan-3-one] | > 6.52 |
| Cc1cc(OCCCO)cc(C)c1-c1cccc(COc2ccc(C3CC(=O)N[S+]3[O-])cc2)c1 (centres unmarked) [Example 8, 5-[4-[[3-[4-(3-hydroxypropoxy)-2,6-dimethylphenyl]phenyl]methoxy]phenyl]-1-oxo-1,2-thiazolidin-3-one] | > 6.52 |

| SMILES | pEC50 |
| --- | --- |
| Cc1cc(OCc2cccc(-c3c(C)cccc3C)c2)ccc1N1CC(=O)NS1(=O)=O [Example 17, 5-[4-[[3-(2,6-dimethylphenyl)phenyl]methoxy]-2-methylphenyl]-1,1-dioxo-1,2,5-thiadiazolidin-3-one] | > 6.52 |
| Cc1cc(OCCC(C)(C)O)cc(C)c1-c1cccc2c1CC[C@H]2Oc1ccc(C2CC(=O)N[S+]2[O-])cc1 (single isomer, unassigned) [24(A)-a] | > 6.52 |
| Cc1cc(OCC(CO)CO)cc(C)c1-c1cccc(COc2ccc(C3CC(=O)N[S+]3[O-])cc2)c1 (centres unmarked) [Example 10, 5-[4-[[3-[4-[3-hydroxy-2-(hydroxymethyl)propoxy]-2,6-dimethylphenyl]phenyl]methoxy]phenyl]-1-oxo-1,2-thiazolidin-3-one] | > 6.52 |
| CCOCCOc1cc(C)c(-c2cccc(COc3ccc(C4CC(=O)N[S+]4[O-])cc3)c2)c(C)c1F (centres unmarked) [Example 2, 5-[4-[[3-[4-(2-ethoxyethoxy)-3-fluoro-2,6-dimethylphenyl]phenyl]methoxy]phenyl]-1-oxo-1,2-thiazolidin-3-one] | > 6.52 |
| N#Cc1ccc(Oc2cccc3c2CC[C@H]3Oc2ccc(C3CC(=O)NS(=O)(=O)N3)cc2)cc1 (stereo partly drawn) [Example 26, 4-(((1R)-1-(4-(1,1-dioxo-1,2,6-thiadiazinan-3-on-5-yl)phenoxy)-2,3-dihydro-1H-inden-4-yl)oxy)benzonitrile] | > 6.52 |
| Cc1cc(OCCCS(C)(=O)=O)cc(C)c1-c1cccc(COc2ccc(C3CC(=O)NS(=O)(=O)C3)cc2)c1 (centres unmarked) [Example 31, 5-[4-[[3-[2,6-dimethyl 4-(3-methylsulfonylpropoxy)phenyl]phenyl]methoxy]phenyl]-1,1-dioxo-1,2-thiazinan-3-one] | > 6.52 |
| Cc1cccc(C)c1-c1cccc(COc2ccc(C3CC(=O)NS(=O)(=O)N3)cc2)c1 (racemic) [Example 21, 5-[4-[[3-(2,6-dimethylphenyl)phenyl]methoxy]phenyl]-1,1-dioxo-1,2,6-thiadiazinan-3-one] | > 6.52 |
| Cc1cc(OCCCS(C)(=O)=O)nc(C)c1-c1cccc(COc2ccc(C3CC(=O)N[S+]3[O-])cc2)c1 (centres unmarked) [Example 5, 5-[4-[[3-[2,4-dimethyl-6-(3-methylsulfonylpropoxy)pyridin-3-yl]phenyl]methoxy]phenyl]-1-oxo-1,2-thiazolidin-3-one] | > 6.52 |
| Cc1cc(OCCC(C)(C)O)c(F)c(C)c1-c1cccc(COc2ccc(C3CC(=O)N[S+]3[O-])cc2)c1 (centres unmarked) [Example 3, 5-[4-[[3-[3-fluoro-4-(3-hydroxy-3-methylbutoxy)-2,6-dimethylphenyl]phenyl]methoxy]phenyl]-1-oxo-1,2-thiazolidin-3-one] | > 6.52 |
| Cc1cc(-c2cccc(COc3ccc(C4CC(=O)N[S+]4[O-])cc3)c2)c(C)cc1OCCC(C)(C)O (centres unmarked) [Example 7, 5-[4-[[3-[4-(3-hydroxy-3-methylbutoxy)-2,5-dimethylphenyl]phenyl]methoxy]phenyl]-1-oxo-1,2-thiazolidin-3-one] | > 6.52 |
| Cc1cc(OCCC(C)(C)O)cc(C)c1-c1cccc2c1CC[C@H]2Oc1ccc(C2CC(=O)NS(=O)(=O)C2)cc1 (stereo partly drawn) [Example 34, 5-(4-(((R)-4-(4-(3-hydroxy-3-methylbutoxy)-2,6-dimethylphenyl)-2,3-dihydro-1H-inden-1-yl)oxy)phenyl)-1,1-dioxo-1,2-thiazinan-3-one] | > 6.52 |
| O=C1CC(c2ccc(O[C@@H]3CCc4c(Br)cccc43)cc2)[S+]([O-])N1 (stereo partly drawn) [Example 29, 5-(4-(((R)-4-bromo-2,3-dihydro-1H-inden-1-yl)oxy)phenyl)-1-oxo-1,2-thiazolidin-3-one] | > 6.52 |
| O=C1CC(c2ccc(OC3COc4c3cccc4C(F)(F)F)cc2)[S+]([O-])N1 (centres unmarked) [Example 28] | 5.52 to 6.52 |
| N#Cc1ccc(Oc2cccc3c2CC[C@H]3Oc2ccc(C3CC(=O)NS(=O)(=O)C3)cc2)cc1 (stereo partly drawn) [Example 32, 4-(((1R)-1-(4-(1,1-dioxo-3-oxo-1,2-thiazinan-5-yl)phenoxy)-2,3-dihydro-1H-inden-4-yl)oxy)benzonitrile] | > 6.52 |
| Cc1cc(OCCC(C)(C)O)nc(C)c1-c1cccc(COc2ccc(C3CC(=O)NS3(=O)=O)cc2)c1 (racemic) [Example 20, 5-[4-[[3-[6-(3-hydroxy-3-methylbutoxy)-2,4-dimethylpyridin-3-yl]phenyl]methoxy]phenyl]-1,1-dioxo-1,2-thiazolidin-3-one] | 5.52 to 6.52 |
| CCOCCOc1cc(C)c(-c2cccc(COc3ccc(C4CC(=O)N[S+]4[O-])cc3)c2)c(C)c1 (mixture of isomers) [Example 1, 5-[4-[[3-[4-(2-ethoxyethoxy)-2,6-dimethylphenyl]phenyl]methoxy]phenyl]-1-oxo-1,2-thi azolidin-3-one] | > 6.52 |
